Laboratory results taken from PubChem BioAssay AID2060900 (Molecular Pharmacology Branch, DTP, NCI, 2025).
pIC50: −log10 of the molar value. Where “and” joins values, the source holds several entries; their conditions need not be identical. Equal values may be shown once.

Tested on: 521955-158-R2-J5-PDC complex spheroids, viability
Assay: Anticancer human tumor 521955-158-R2-J5-PDC patient-derived pancreatic carcinoma cell line growth inhibition [RAS]
Details: for viability, T/C: stronger effect = lower value
Summary of the method: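 Agents were tested in combination matrices in half-log decrements from a top concentration at or near clinical Cmax (10 microM if undetermined). Targets were multi-cell spheroids of tumour lines plus HUVEC and MSC stromal cells.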
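Further: compound exposure lasted seven days before the viability read.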
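Wherever viability, T/C is given: spheroids also contain HUVEC endothelial cells and mesenchymal stem cells as stroma.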

Compound `CC(=O)OC12COC1CC(O)C1(C)C(=O)C(O)C3=C(C)C(OC(=O)C(O)C(NC(=O)OC(C)(C)C)c4ccccc4)CC(O)(C(OC(=O)c4ccccc4)C21)C3(C)C` (stereo not drawn) + C#Cc1c(F)ccc2cc(O)cc(-c3ncc4c(N5CC6CCC(C5)N6)nc(OCC56CCCN5CC(F)C6)nc4c3F)c12 has a pIC50 (curve of first compound, second compound 0.0316 µM) greater than 7.50, a pIC50 (curve of first compound, second compound 0.1 µM) greater than 7.50 and a pIC50 (curve of first compound, second compound 0.316 µM) greater than 7.50. The pIC50 (curve of first compound, second compound 1 µM) was greater than 7.50, the pIC50 (curve of first compound, second compound 3.16 µM) was greater than 7.50 and the pIC50 (curve of first compound, second compound 10 µM) was greater than 7.50. The viability, T/C (second compound 0.0316 µM, first compound 0.0316 µM) was 32.5%, the viability, T/C (second compound 0.0316 µM, first compound 0.1 µM) was 35.9% and the viability, T/C (second compound 0.0316 µM, first compound 0.316 µM) was 32.6%. The viability, T/C (second compound 0.0316 µM, first compound 1 µM) was 30.2%, the viability, T/C (second compound 0.0316 µM, first compound 3.16 µM) was 37.5% and the viability, T/C (second compound 0.0316 µM, first compound 10 µM) was 47.2%. It also gave a viability, T/C (second compound 0.1 µM, first compound 0.0316 µM) of 33.3%, a viability, T/C (second compound 0.1 µM, first compound 0.1 µM) of 39.6% and a viability, T/C (second compound 0.1 µM, first compound 0.316 µM) of 35.2%. The viability, T/C (second compound 0.1 µM, first compound 1 µM) was 37.7%, the viability, T/C (second compound 0.1 µM, first compound 3.16 µM) was 35.6% and the viability, T/C (second compound 0.1 µM, first compound 10 µM) was 40.4%. It also gave a viability, T/C (second compound 0.316 µM, first compound 0.0316 µM) of 33.2%, a viability, T/C (second compound 0.316 µM, first compound 0.1 µM) of 31.7% and a viability, T/C (second compound 0.316 µM, first compound 0.316 µM) of 28.6%. For the same compound, the viability, T/C (second compound 0.316 µM, first compound 1 µM) was 30.9%, the viability, T/C (second compound 0.316 µM, first compound 3.16 µM) was 37% and the viability, T/C (second compound 0.316 µM, first compound 10 µM) was 38.7%. For the same compound, the viability, T/C (second compound 1 µM, first compound 0.0316 µM) was 21.7%, the viability, T/C (second compound 1 µM, first compound 0.1 µM) was 34.3% and the viability, T/C (second compound 1 µM, first compound 0.316 µM) was 32.6%. For the same compound, the viability, T/C (second compound 1 µM, first compound 1 µM) was 29.4%, the viability, T/C (second compound 1 µM, first compound 3.16 µM) was 51.5% and the viability, T/C (second compound 1 µM, first compound 10 µM) was 40.5%. The viability, T/C (second compound 3.16 µM, first compound 0.0316 µM) was 27.4%, the viability, T/C (second compound 3.16 µM, first compound 0.1 µM) was 33.3% and the viability, T/C (second compound 3.16 µM, first compound 0.316 µM) was 30.8%. It also gave a viability, T/C (second compound 3.16 µM, first compound 1 µM) of 33.4%, a viability, T/C (second compound 3.16 µM, first compound 3.16 µM) of 31.1% and a viability, T/C (second compound 3.16 µM, first compound 10 µM) of 33%. The viability, T/C (second compound 10 µM, first compound 0.0316 µM) was 24.8%, the viability, T/C (second compound 10 µM, first compound 0.1 µM) was 34.1% and the viability, T/C (second compound 10 µM, first compound 0.316 µM) was 28.3%. The viability, T/C (second compound 10 µM, first compound 1 µM) was 28.7%, the viability, T/C (second compound 10 µM, first compound 3.16 µM) was 32.1% and the viability, T/C (second compound 10 µM, first compound 10 µM) was 25.1%.

For `C=CC(=O)Nc1cc(Nc2nccc(-c3cn(C)c4ccccc34)n2)c(OC)cc1N(C)CCN(C)C`, the viability, T/C (compound 0.00316 µM) was 101% [middle of 4 runs], the viability, T/C (compound 0.0316 µM) was 94.7% [middle of 4 runs] and the viability, T/C (compound 0.1 µM) was 79.1% [middle of 4 runs]. For the same compound, the pIC50 (curve of compound) was 6.02 and 6.33 and < 6.00.

Compound `CC(=O)OC12COC1CC(O)C1(C)C(=O)C(O)C3=C(C)C(OC(=O)C(O)C(NC(=O)OC(C)(C)C)c4ccccc4)CC(O)(C(OC(=O)c4ccccc4)C21)C3(C)C` (stereo not drawn) + CCn1c(-c2cc(N3CCN(C)CC3)cnc2C(C)OC)c2c3cc(ccc31)-c1csc(n1)CC(NC(=O)C1CC1C)C(=O)N1CCCC(N1)C(=O)OCC(C)(C)C2 has a pIC50 (curve of first compound, second compound 0.000949 µM) greater than 7.50, a pIC50 (curve of first compound, second compound 0.003 µM) greater than 7.50 and a pIC50 (curve of first compound, second compound 0.00949 µM) greater than 7.50. For the same compound, the pIC50 (curve of first compound, second compound 0.03 µM) was greater than 7.50, the pIC50 (curve of first compound, second compound 0.0949 µM) was greater than 7.50 and the pIC50 (curve of first compound, second compound 0.3 µM) was greater than 7.50. For the same compound, the viability, T/C (second compound 0.000949 µM, first compound 0.0316 µM) was 19.7%, the viability, T/C (second compound 0.000949 µM, first compound 0.1 µM) was 23.3% and the viability, T/C (second compound 0.000949 µM, first compound 0.316 µM) was 20.3%. The viability, T/C (second compound 0.000949 µM, first compound 1 µM) was 24.3%, the viability, T/C (second compound 0.000949 µM, first compound 3.16 µM) was 29.3% and the viability, T/C (second compound 0.000949 µM, first compound 10 µM) was 30.7%. The viability, T/C (second compound 0.003 µM, first compound 0.0316 µM) was 25.7%, the viability, T/C (second compound 0.003 µM, first compound 0.1 µM) was 21.4% and the viability, T/C (second compound 0.003 µM, first compound 0.316 µM) was 23.5%. It also gave a viability, T/C (second compound 0.003 µM, first compound 1 µM) of 28.9%, a viability, T/C (second compound 0.003 µM, first compound 3.16 µM) of 23.7% and a viability, T/C (second compound 0.003 µM, first compound 10 µM) of 26.8%. The viability, T/C (second compound 0.00949 µM, first compound 0.0316 µM) was 20.8%, the viability, T/C (second compound 0.00949 µM, first compound 0.1 µM) was 21.7% and the viability, T/C (second compound 0.00949 µM, first compound 0.316 µM) was 20.4%. The viability, T/C (second compound 0.00949 µM, first compound 1 µM) was 19.8%, the viability, T/C (second compound 0.00949 µM, first compound 3.16 µM) was 18.9% and the viability, T/C (second compound 0.00949 µM, first compound 10 µM) was 16.6%. It also gave a viability, T/C (second compound 0.03 µM, first compound 0.0316 µM) of 12.9%, a viability, T/C (second compound 0.03 µM, first compound 0.1 µM) of 12.8% and a viability, T/C (second compound 0.03 µM, first compound 0.316 µM) of 11.8%. It also gave a viability, T/C (second compound 0.03 µM, first compound 1 µM) of 16.9%, a viability, T/C (second compound 0.03 µM, first compound 3.16 µM) of 12.7% and a viability, T/C (second compound 0.03 µM, first compound 10 µM) of 9.64%. For the same compound, the viability, T/C (second compound 0.0949 µM, first compound 0.0316 µM) was 7.98%, the viability, T/C (second compound 0.0949 µM, first compound 0.1 µM) was 9.42% and the viability, T/C (second compound 0.0949 µM, first compound 0.316 µM) was 11.9%. The viability, T/C (second compound 0.0949 µM, first compound 1 µM) was 8.27%, the viability, T/C (second compound 0.0949 µM, first compound 3.16 µM) was 12.1% and the viability, T/C (second compound 0.0949 µM, first compound 10 µM) was 7.89%. For the same compound, the viability, T/C (second compound 0.3 µM, first compound 0.0316 µM) was 7.22%, the viability, T/C (second compound 0.3 µM, first compound 0.1 µM) was 8.9% and the viability, T/C (second compound 0.3 µM, first compound 0.316 µM) was 7.91%. The viability, T/C (second compound 0.3 µM, first compound 1 µM) was 11.6%, the viability, T/C (second compound 0.3 µM, first compound 3.16 µM) was 10.6% and the viability, T/C (second compound 0.3 µM, first compound 10 µM) was 7.75%.
